Read-outs that look alike come from different tables or passages of the source.
Experiments:
[1] = tested on: Rec1 (Ibrutinib sensitive MCL); test: Anti-proliferative activity, DLBCL cell line panel; assay type: cell-based; conditions: Homo sapiens, Rec1, 192 h; antiproliferation after 8 days of treatment
Single IV dose plasma PK [2] = assay type: in vivo, rat; conditions: for C0 / Vd / AUC(0-inf) / clearance / half-life: male, plasma, S-D; for C0 / Vd: Rat; for Vd / AUC(0-inf) / clearance / half-life: iv, 1 mg/kg; for Vd: read-out: Vdss
Method: (§1) Single intravenous (IV) dose PK was conducted in mice (two strains), rats, monkeys, and dogs at a dose of 1 mg/kg in 70% PEG400 (PEG400/water 70:30) by bolus injection. The time course for plasma sample was optimized to fully characterize the disposition profile in each species. PK analysis was by non-compartmental method.

[3] = tested on: T cells derived from healthy donors; test: CyTOF analysis of T cells stimulated with CD3/28; assay type: cell-based, human
Text: After fixation and barcoding, samples were pooled per donor and stained using a panel of 32 metal-labelled antibodies for identification of phenotype and function of immune cell populations and acquired on a CyTOF® C5 system. After debarcoding and normalization, cell populations were either manually gated or clustered by spanning-tree progression of density-normalized events (SPADE) analysis using Cytobank® software.
These observations are consistent with the fluorescence-activated cell sorting (FACS) analysis data.

[4] = Serum and tumor levels after multiple oral doses in male OCI-LY3 tumor-bearing NSG mice; assay type: in vivo; conditions: mean (SD); for concentration at 7 h / concentration at 12 h / concentration at 4 h / concentration at 24 h / Kp at 12 h / Kp at 24 h: male, NSG, mouse; for concentration at 7 h: 7 h post dose; for Kp at 12 h: Day 5, 12 h post dose, read-out: Tumor: serum ratio; for Kp at 24 h: read-out: Tumor:serum ratio
Method: Serum samples were collected at 7 and 12 hours post dose and tumor samples were collected 12 hours post last dose from the twice-daily-treated animals. From once-daily-treated animals, serum samples were collected at 4, 12, and 24 hours post dose and tumor samples were collected at 24 hours post last dose.

[5] = tested on: panel of 91 tumor cell lines; test: Growth inhibition across various cancer indications; assay type: cell-based; conditions: more than 18 tumor indications, no ABC-DLBCL lines
Text: The panel represents cancer cell lines from more than 18 different tumor indications, including breast, colon, lung, ovarian, and blood cancers.

[6] = tested on: IL-6 secretion by OCI-LY3 ABC-DLBCL cells; test: IL-6 secretion assay (MesoScale Discovery); assay type: cell-based; conditions: Homo sapiens; supernatants of OCI-LY3 cells, 16 independent experiments
Method: NF-κB signaling regulates the secretion of multiple cytokines, including interleukin (IL)-6 and IL-10. Libermann T A et al. Mol Cell Biol. 1990; 10(6):3155-3162; and Cao S, et al. J Biol Chem. 2006; 281(36):26041-26050. Secretion of the cytokines IL-6 and IL-10 by OCI-LY3 ABC-DLBCL cells was measured using a MesoScale Discovery (MSD) assay.

[7] = tested on: OCI-LY3 (Myd88/CARD11 A20 mut); test: Anti-proliferative activity, DLBCL cell line panel; assay type: cell-based; conditions: Homo sapiens
Method: (§2) Four ABC-DLBCL cell lines with activating mutations in the canonical NFκB pathway were evaluated (OCI-LY3 (CARD11, MYD88 & A20 mutations), TMD8, HBL1, and OCI-LY10 (CD79B & MYD88 mutations)), which are generally sensitive to NF-κB pathway inhibition. None of the GCB-DLBCL cell lines harbor mutations in the NF-κB pathway. The GCB-DLBCL cell lines served as a negative control to exclude compounds with general cytotoxic effects.
(§3) At concentrations ≥20 μM general cytotoxicity was observed.

[8] = tested on: HBL1 (CD79b/Myd88/A20 mut); test: Anti-proliferative activity, DLBCL cell line panel; assay type: cell-based; conditions: HBL1, 192 h; antiproliferation after 8 days of treatment
Method: as §2, §3

SU-DHL4 (no NF-κB mut) = test: Anti-proliferative activity, DLBCL cell line panel; assay type: cell-based; conditions: Homo sapiens, SU-DHL-4, 192 h; antiproliferation after 8 days of treatment
Method: as §2, §3

OCT-Ly7 (no NF-κB mut) = test: Anti-proliferative activity, DLBCL cell line panel; assay type: cell-based; conditions: 192 h; antiproliferation after 8 days of treatment
Method: as §2, §3

OCI-Ly1 (no NF-κB mut) = test: Anti-proliferative activity, DLBCL cell line panel; assay type: cell-based; conditions: Homo sapiens, OCI-Ly1, 192 h; antiproliferation after 8 days of treatment
Method: as §2, §3

[9] = tested on: TMD8 (CD79b/Myd88/A20 mut); test: Anti-proliferative activity, DLBCL cell line panel; assay type: cell-based; conditions: Homo sapiens, TMD8, 192 h; antiproliferation after 8 days of treatment
Method: as §2, §3

Single IV dose plasma PK [10] = assay type: in vivo, dog
Method: as §1

[11] = Sprague-Dawley (S-D), rat, 3M, 1 mg/kg IV in 70% PEG400 (-AAA), mean
[12] = Sprague-Dawley (S-D), rat, 6M, 1 mg/kg IV, dosed as the -ZAF salt
[13] = male, plasma, Dog, beagle, 3M, 1 mg/kg IV in 70% PEG400, mean

SMILES: O=C(Nc1ccnc(C(F)(F)F)c1)c1cnn(-c2cccc3c(=O)[nH]ccc23)c1C(F)(F)F [Compound A, 1-(1-oxo-1,2-dihydroisoquinolin-5-yl)-5-(trifluoromethyl)-N-[2-(trifluoromethyl)pyridin-4-yl]-1H-pyrazole-4-carboxamide]
- IC50 [1]: 1170 nM
- C0 (Single IV dose plasma PK [2]; Sprague-Dawley (S-D), 6M, 1 mg/kg IV, dosed as the -ZAF salt, mean): 1450 ng/mL
- Vd (Single IV dose plasma PK [2]; [11]): 0.86 L/kg
- Vd (Single IV dose plasma PK [2]; [12]): 0.622 L/kg
- AUC(0-inf) (Single IV dose plasma PK [2]; [11]): 7950 ng·h/mL
- clearance (Single IV dose plasma PK [2]; [11]): 2.15 mL/min/kg
- half-life (Single IV dose plasma PK [2]; [11]): 10 h
- AUC(0-inf) (Single IV dose plasma PK [2]; [12]): 9780 ng·h/mL
- clearance (Single IV dose plasma PK [2]; [12]): 1.7 mL/min/kg
- half-life (Single IV dose plasma PK [2]; [12]): 5.33 h
- C0 (Single IV dose plasma PK [2]; Sprague-Dawley, 3M, 1 mg/kg IV in 70% PEG400 (-AAA), mean): 2200 ng/mL
- CL as fraction of liver blood flow (LBF) (Single IV dose plasma PK [2]; rat, LBF 55.2 mL/min/kg): 1.5%
- generation of Treg cells following CD3/28 stimulation ([3]; 4 days, CyTOF): dose-dependently inhibited the generation of CD4^+CD25^+CD1271^lowFoxP3^hi cells
- number of CD8+ T cells ([3]; 4 days, CyTOF): no strong effect on the number of CD8^+ T cells was observed
- expression of TIM3 ([3]; CD4+ and CD8+ T cells, CyTOF): No decrease
- expression of exhaustion markers PD-1, CTLA4, LAG3 ([3]; CD8+ T cells, CyTOF): decreased on CD8^+ T cells
- activation of CD8+ T cells ([3]; CD69+CD25+ cells following CD3/28 stimulation): reduced
- Serum concentration ([4]; 10 mg/kg twice daily PO, Day 5 eight doses given, 12 h post dose (trough)): 2,202 (313) ng/ml
- concentration at 7 h ([4]; serum, oral, 10 mg/kg, 10 mg/kg twice daily PO, Day 1 following first dose): 3260 ng/mL
- concentration at 12 h ([4]; serum, oral, 10 mg/kg, 10 mg/kg twice daily PO, Day 1 following first dose, 12 h post dose, read-out: Serum concentration): 2440 ng/mL
- concentration at 7 h ([4]; serum, oral, 10 mg/kg, 10 mg/kg twice daily PO, Day 4 seven doses given): 3760 ng/mL
- concentration at 12 h ([4]; serum, oral, 10 mg/kg, 10 mg/kg twice daily PO, Day 5 eight doses given, 12 h post dose (trough), read-out: Serum concentration): 2200 ng/mL
- concentration at 7 h ([4]; serum, oral, 30 mg/kg, 30 mg/kg twice daily PO, Day 1 following first dose): 9970 ng/mL
- concentration at 12 h ([4]; serum, oral, 30 mg/kg, 30 mg/kg twice daily PO, Day 1 following first dose, 12 h post dose, read-out: Serum concentration): 9000 ng/mL
- concentration at 7 h ([4]; serum, oral, 30 mg/kg, 30 mg/kg twice daily PO, Day 4 seven doses given): 7420 ng/mL
- concentration at 12 h ([4]; serum, oral, 30 mg/kg, 30 mg/kg twice daily PO, Day 5 eight doses given, 12 h post dose, read-out: Serum concentration): 3890 ng/mL
- concentration at 7 h ([4]; serum, oral, 100 mg/kg, 100 mg/kg twice daily PO, Day 1 following first dose): 16200 ng/mL
- concentration at 12 h ([4]; serum, oral, 100 mg/kg, 100 mg/kg twice daily PO, Day 1 following first dose, 12 h post dose, read-out: Serum concentration): 13300 ng/mL
- concentration at 12 h ([4]; serum, oral, 100 mg/kg, 100 mg/kg twice daily PO, Day 5 eight doses given, 12 h post dose, read-out: Serum concentration): 6910 ng/mL
- concentration at 4 h ([4]; serum, oral, once daily PO, dose not printed in Table 8 (first group; b301: 60 and 100 mg/kg), Day 1, 4 h post dose): 15000 ng/mL
- concentration at 4 h ([4]; serum, oral, once daily PO, dose not printed in Table 8 (second group; b301: 60 and 100 mg/kg), Day 1, 4 h post dose): 18100 ng/mL
- concentration at 24 h ([4]; serum, po, once daily PO, dose not given (first group), Day 1, 24 h post dose, read-out: Serum concentration): 2060 ng/mL
- concentration at 4 h ([4]; serum, po, once daily PO, dose not given (first group), Day 4, 4 h post dose): 9850 ng/mL
- concentration at 12 h ([4]; serum, po, once daily PO, dose not given (first group), Day 4, 12 h post dose, read-out: Serum concentration): 8680 ng/mL
- concentration at 24 h ([4]; serum, po, once daily PO, dose not given (first group), Day 4, 24 h post dose, read-out: Serum concentration): 1380 ng/mL
- concentration at 24 h ([4]; serum, po, once daily PO, dose not given (second group), Day 1, 24 h post dose, read-out: Serum concentration): 1970 ng/mL
- concentration at 4 h ([4]; serum, po, once daily PO, dose not given (second group), Day 4, 4 h post dose): 12600 ng/mL
- concentration at 12 h ([4]; serum, po, once daily PO, dose not given (second group), Day 4, 12 h post dose, read-out: Serum concentration): 11000 ng/mL
- concentration at 24 h ([4]; serum, po, once daily PO, dose not given (second group), Day 4, 24 h post dose, read-out: Serum concentration): 2800 ng/mL
- Kp at 12 h ([4]; tumor and serum, 10 mg/kg twice daily PO): 1
- Kp at 12 h ([4]; tumor and serum, 30 mg/kg twice daily PO): 1.3
- Kp at 12 h ([4]; tumor and serum, 100 mg/kg twice daily PO): 1.3
- Kp at 24 h ([4]; tumor and serum, once daily PO, dose not given (first group), Day 4, 24 h post dose): 1.9
- concentration at 12 h ([4]; tumor, oral, 10 mg/kg, 10 mg/kg twice daily PO, Day 5 eight doses given, 12 h post dose, read-out: Tumor concentration): 2160 ng/g
- concentration at 12 h ([4]; tumor, oral, 30 mg/kg, 30 mg/kg twice daily PO, Day 5 eight doses given, 12 h post dose, read-out: Tumor concentration): 5050 ng/g
- concentration at 12 h ([4]; tumor, oral, 100 mg/kg, 100 mg/kg twice daily PO, Day 5 eight doses given, 12 h post dose, read-out: Tumor concentration): 8830 ng/g
- concentration at 24 h ([4]; tumor, po, once daily PO, dose not given (first group), Day 4, 24 h post dose, read-out: Tumor concentration): 2460 ng/g
- concentration at 24 h ([4]; tumor, po, once daily PO, dose not given (second group), Day 4, 24 h post dose, read-out: Tumor concentration): 4300 ng/g
- Kp at 24 h ([4]; tumor/serum, once daily PO, dose not given (second group), Day 4, 24 h post dose): 1.6
- sensitivity of tumor cell lines (cell viability) [5]: no single cell lines showing sensitivity to Compound A up to 20 μM
- IC50 [6]: 114 ± 41 nM
- IC50 ([7]; OCI-Ly3, 192 h, antiproliferation after 8 days of treatment): 496 nM
- IC50 ([7]; Proliferation, OCI-LY3): 496 ± 262 nM
- IC50 [8]: 547 nM
- IC50 (SU-DHL4 (no NF-κB mut)): 6000 nM
- IC50 (OCT-Ly7 (no NF-κB mut)): > 10000 nM
- IC50 (OCI-Ly1 (no NF-κB mut)): > 10000 nM
- IC50 [9]: 635 nM
- CL as fraction of liver blood flow (LBF) (Single IV dose plasma PK [10]; dog, LBF 30.9 mL/min/kg): 3.0%
- AUC(0-inf) (Single IV dose plasma PK [10]; [13]): 23100 ng·h/mL
- C0 (Single IV dose plasma PK [10]; [13]): 2070 ng/mL
- clearance (Single IV dose plasma PK [10]; [13]): 0.772 mL/min/kg
- half-life (Single IV dose plasma PK [10]; [13]): 16.9 h
- Vd (Single IV dose plasma PK [10]; male, plasma, Dog, beagle, 3M, 1 mg/kg IV in 70% PEG400, mean, read-out: Vdss): 1.01 L/kg

Source: US20240299376A1, “METHOD OF TREATING A CONDITION USING A […] EFFECTIVE DOSE OF 1-(1-OXO-1,2-DIHYDROISOQUINOLIN-5-YL)-5-(TRIFLUOROMETHYL)-N-(2-(TRIFLUOROMETHYL)PYRIDIN-4-YL)-1H-PYRAZOLE-4-CARBOXAMIDE” (Janssen Pharmaceutica NV, priority 2021, published 2024)
